{"source": "patent US7642270B2", "about": "“5-oxo-5,8-dihydro-pyrido-pyrimidine as inhibitors of c-fms kinase” (Janssen Pharmaceutica N.V., priority 2005, dated 2010)", "data": [{"target": "c-fms (Homo sapiens, UniProt P07333)", "sequence (P07333 20-972)": "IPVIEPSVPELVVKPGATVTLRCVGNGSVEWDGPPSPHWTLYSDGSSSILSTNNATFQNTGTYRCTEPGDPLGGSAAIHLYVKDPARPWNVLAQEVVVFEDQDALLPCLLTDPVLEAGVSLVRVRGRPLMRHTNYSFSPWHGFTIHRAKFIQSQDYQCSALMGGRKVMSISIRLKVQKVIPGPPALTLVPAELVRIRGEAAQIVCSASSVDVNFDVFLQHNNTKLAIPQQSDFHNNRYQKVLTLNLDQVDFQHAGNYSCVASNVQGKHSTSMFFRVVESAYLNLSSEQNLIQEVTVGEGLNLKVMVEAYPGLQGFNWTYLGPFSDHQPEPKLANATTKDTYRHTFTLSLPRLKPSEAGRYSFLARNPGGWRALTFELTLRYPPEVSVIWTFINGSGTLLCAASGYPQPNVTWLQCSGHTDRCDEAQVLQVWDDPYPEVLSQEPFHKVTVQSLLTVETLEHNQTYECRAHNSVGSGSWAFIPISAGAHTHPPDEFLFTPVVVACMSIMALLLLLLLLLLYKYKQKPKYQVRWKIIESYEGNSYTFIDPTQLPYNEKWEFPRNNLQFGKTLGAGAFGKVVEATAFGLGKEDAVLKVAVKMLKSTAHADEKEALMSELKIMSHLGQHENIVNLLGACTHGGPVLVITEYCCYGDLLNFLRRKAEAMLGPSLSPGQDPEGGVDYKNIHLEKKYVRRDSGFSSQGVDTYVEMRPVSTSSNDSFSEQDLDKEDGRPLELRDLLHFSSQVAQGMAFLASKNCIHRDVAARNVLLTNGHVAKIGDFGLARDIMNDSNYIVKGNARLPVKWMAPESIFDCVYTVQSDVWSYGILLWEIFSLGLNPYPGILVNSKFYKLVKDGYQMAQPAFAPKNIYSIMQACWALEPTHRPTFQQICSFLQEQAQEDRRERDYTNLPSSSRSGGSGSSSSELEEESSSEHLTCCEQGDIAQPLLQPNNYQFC", "assay": "c-fms autophosphorylation, fluorescence polarization competition immunoassay", "format": "biochemical", "details": "not given", "procedure": "(§1) Autophosphorylation, Fluorescence Polarization Competition Immunoassay\n(§2) The assay buffer used was 100 mM 4-(2-hydroxyethyl)piperazine 1-ethanesulfonic acid (HEPES), pH 7.5, 1 mM 1,4-dithio-DL-threitol (DTT), 0.01% (v/v) Tween-20. Compounds were diluted in assay buffer containing 4% dimethylsulfoxide (DMSO) just prior to the assay. […] The kinase reaction was initiated by adding 2 μL of 5 mM ATP (Sigma) in assay buffer. The final concentrations in the assay were 10 nM c-fms, 1 mM ATP, 5 mM MgCl2, 2% DMSO. Control reactions were ran in each plate: in positive and negative control wells, assay buffer (made 4% in DMSO) was substituted for the compound; in addition, positive control wells received 1.2 μL of 50 mM ethylenediaminetetraaceticacid (EDTA).\n(§3) The plates were incubated at room temperature for 45 min. At the end of the incubation, the reaction was quenched with 1.2 μL of 50 mM EDTA (EDTA was not added to the positive control wells at this point; see above). Following a 5-min incubation, each well received 10 μL of a 1:1:3 mixture of anti-phosphotyrosine antibody, 10×, PTK green tracer, 10× (vortexed), FP dilution buffer, respectively (all from PanVera, cat. # P2837). The plate was covered, incubated for 30 min at room temperature and the fluorescence polarization was read on the Analyst.\n(§4) The IC50 values shown in Table 1 are averages of three independent measurements.", "units": {"IC50": "nM"}, "values": [{"smiles": "NC(=O)c1cn(-c2ccc3c(c2)CCC3)c2nc(Nc3ccc(CN4CCOCC4)cc3)ncc2c1=O", "note": "[Cpd 69, 8-Indan-5-yl-2-(4-morpholin-4-ylmethyl-phenylamino)-5-oxo-5,8-dihydro-pyrido[2,3-d]pyrimidine-6-carboxylic acid amide]", "IC50": 18}]}, {"target": "c-fms (Homo sapiens, UniProt P07333)", "assay": "c-fms autophosphorylation, fluorescence polarization competition immunoassay", "format": "biochemical", "details": "10 nM c-fms, 1 mM ATP, 5 mM MgCl2, 45 min room temperature; averages of three independent measurements; read-out: c-fms Autophosphorylation IC50", "procedure": "as §1, §2, §3, §4", "units": {"IC50": "nM"}, "values": [{"smiles": "CNC(=O)c1cn(-c2ccc3c(c2)CCC3)c2nc(Nc3ccc(N4CCNCC4)cc3)ncc2c1=O", "note": "[Cpd 41, 8-indan-5-yl-5-oxo-2-(4-piperazin-1-yl-phenylamino)-5,8-dihydro-pyrido[2,3-d]pyrimidine-6-carboxylic acid methyl amide]", "IC50": 11}, {"smiles": "CCNC(=O)c1cn(-c2ccc3c(c2)CCC3)c2nc(Nc3ccc(N4CCNCC4)cc3)ncc2c1=O", "note": "[Cpd 42, 8-indan-5-yl-5-oxo-2-(4-piperazin-1-yl-phenylamino)-5,8-dihydro-pyrido[2,3-d]pyrimidine-6-carboxylic acid ethyl amide]", "IC50": 16}, {"smiles": "CCNC(=O)c1cn(-c2ccc3c(c2)CCC3)c2nc(Nc3ccc(N4CC(C)NC(C)C4)cc3)ncc2c1=O", "note": "(stereo not shown) [Cpd 45, 2-[4-(3,5-Dimethyl-piperazin-1-yl)-phenylamino]-8-indan-5-yl-5-oxo-5,8-dihydro-pyrido[2,3-d]pyrimidine-6-carboxylic acid ethyl amide]", "IC50": 12}, {"smiles": "CCNC(=O)c1cn(-c2ccc3c(c2)CCC3)c2nc(Nc3ccc(CCN4CCN(C)CC4)cc3)ncc2c1=O", "note": "[Cpd 48, 8-Indan-5-yl-2-{4-[2-(4-methyl-piperazin-1-yl)-ethyl]-phenylamino}-5-oxo-5,8-dihydro-pyrido[2,3-d]pyrimidine-6-carboxylic acid ethyl amide]", "IC50": 32}, {"smiles": "CCNC(=O)c1cn(-c2ccc3c(c2)CCC3)c2nc(Nc3ccc(C4CCNCC4)cc3)ncc2c1=O", "note": "[Cpd 51, 8-Indan-5-yl-5-oxo-2-(4-piperidin-4-yl-phenylamino)-5,8-dihydro-pyrido[2,3-d]pyrimidine-6-carboxylic acid ethyl amide]", "IC50": 25}, {"smiles": "NC(=O)c1cn(C2CCCCC2)c2nc(Nc3ccc(CCN4CCOCC4)cc3)ncc2c1=O", "note": "[Cpd 57, 8-Cyclohexyl-2-[4-(2-morpholin-4-yl-ethyl)-phenylamino]-5-oxo-5,8-dihydro-pyrido[2,3-d]pyrimidine-6-carboxylic acid amide]", "IC50": 26}, {"smiles": "CNC(=O)c1cn(C2CCCCC2)c2nc(Nc3ccc(CCN4CCOCC4)cc3)ncc2c1=O", "note": "[Cpd 58, 8-Cyclohexyl-2-[4-(2-morpholin-4-yl-ethyl)-phenylamino]-5-oxo-5,8-dihydro-pyrido[2,3-d]pyrimidine-6-carboxylic acid methyl amide]", "IC50": 120}, {"smiles": "CCNC(=O)c1cn(C2CCCCC2)c2nc(Nc3ccc(CCN4CCOCC4)cc3)ncc2c1=O", "note": "[Cpd 59, 8-Cyclohexyl-2-[4-(2-morpholin-4-yl-ethyl)-phenylamino]-5-oxo-5,8-dihydro-pyrido[2,3-d]pyrimidine-6-carboxylic acid ethyl amide]", "IC50": 190}, {"smiles": "CN1CCN(c2ccc(Nc3ncc4c(=O)c(C(N)=O)cn(C5CCCCC5)c4n3)cc2)CC1", "note": "[Cpd 60, 8-Cyclohexyl-2-[4-(4-methyl-piperazin-1-yl)-phenylamino]-5-oxo-5,8-dihydro-pyrido[2,3-d]pyrimidine-6-carboxylic acid amide]", "IC50": 35}, {"smiles": "CNC(=O)c1cn(C2CCCCC2)c2nc(Nc3ccc(N4CCN(C)CC4)cc3)ncc2c1=O", "note": "[Cpd 61, 8-Cyclohexyl-2-[4-(4-methyl-piperazin-1-yl)-phenylamino]-5-oxo-5,8-dihydro-pyrido[2,3-d]pyrimidine-6-carboxylic acid methyl amide]", "IC50": 160}, {"smiles": "CCNC(=O)c1cn(C2CCCCC2)c2nc(Nc3ccc(N4CCN(C)CC4)cc3)ncc2c1=O", "note": "[Cpd 62, 8-Cyclohexyl-2-[4-(4-methyl-piperazin-1-yl)-phenylamino]-5-oxo-5,8-dihydro-pyrido[2,3-d]pyrimidine-6-carboxylic acid ethyl amide]", "IC50": 190}, {"smiles": "CN1CCN(c2cccc(Nc3ncc4c(=O)c(C(N)=O)cn(C5CCCCC5)c4n3)c2)CC1", "note": "[Cpd 63, 8-Cyclohexyl-2-[3-(4-methyl-piperazin-1-yl)-phenylamino]-5-oxo-5,8-dihydro-pyrido[2,3-d]pyrimidine-6-carboxylic acid amide]", "IC50": 21}, {"smiles": "CNC(=O)c1cn(C2CCCCC2)c2nc(Nc3cccc(N4CCN(C)CC4)c3)ncc2c1=O", "note": "[Cpd 64, 8-Cyclohexyl-2-[3-(4-methyl-piperazin-1-yl)-phenylamino]-5-oxo-5,8-dihydro-pyrido[2,3-d]pyrimidine-6-carboxylic acid methyl amide]", "IC50": 50}, {"smiles": "CCNC(=O)c1cn(C2CCCCC2)c2nc(Nc3cccc(N4CCN(C)CC4)c3)ncc2c1=O", "note": "[Cpd 65, 8-Cyclohexyl-2-[3-(4-methyl-piperazin-1-yl)-phenylamino]-5-oxo-5,8-dihydro-pyrido[2,3-d]pyrimidine-6-carboxylic acid ethyl amide]", "IC50": 110}, {"smiles": "CC(C)NS(=O)(=O)CCc1ccc(Nc2ncc3c(=O)c(C(N)=O)cn(C4CCCCC4)c3n2)cc1", "note": "[Cpd 66, 8-Cyclohexyl-2-[4-(2-isopropylsulfamoyl-ethyl)-phenylamino]-5-oxo-5,8-dihydro-pyrido[2,3-d]pyrimidine-6-carboxylic acid amide]", "IC50": 120}, {"smiles": "NC(=O)c1cn(C2CCCCC2)c2nc(Nc3ccc(CCS(=O)(=O)N4CCOCC4)cc3)ncc2c1=O", "note": "[Cpd 67, 8-Cyclohexyl-2-{4-[2-(morpholine-4-sulfonyl)-ethyl]-phenylamino}-5-oxo-5,8-dihydro-pyrido[2,3-d]pyrimidine-6-carboxylic acid amide]", "IC50": 120}, {"smiles": "CN(C)CC(=O)N1CCC(c2ccc(Nc3ncc4c(=O)c(C(N)=O)cn(C5CCCCC5)c4n3)cc2)CC1", "note": "[Cpd 68, 8-Cyclohexyl-2-{4-[1-(2-dimethylamino-acetyl)-piperidin-4-yl]-phenylamino}-5-oxo-5,8-dihydro-pyrido[2,3-d]pyrimidine-6-carboxylic acid amide]", "IC50": 130}, {"smiles": "CN(C)CC(=O)N1CCC(c2ccc(Nc3ncc4c(=O)c(C(N)=O)cn(-c5ccc6c(c5)CCC6)c4n3)cc2)CC1", "note": "[Cpd 70, 2-{4-[1-(2-Dimethylamino-acetyl)-piperidin-4-yl]-phenylamino}-8-indan-5-yl-5-oxo-5,8-dihydro-pyrido[2,3-d]pyrimidine-6-carboxylic acid amide]", "IC50": 1100}, {"smiles": "CN(C)CC(=O)N1CCC(c2cccc(Nc3ncc4c(=O)c(C(N)=O)cn(-c5ccc6c(c5)CCC6)c4n3)c2)CC1", "note": "[Cpd 71, 2-{3-[1-(2-Dimethylamino-acetyl)-piperidin-4-yl]-phenylamino}-8-indan-5-yl-5-oxo-5,8-dihydro-pyrido[2,3-d]pyrimidine-6-carboxylic acid amide]", "IC50": 7400}, {"smiles": "CN1CCN(CC(=O)N2CCC(c3ccc(Nc4ncc5c(=O)c(C(N)=O)cn(-c6ccc7c(c6)CCC7)c5n4)cc3)CC2)CC1", "note": "[Cpd 72, 8-Indan-5-yl-2-(4-{1-[2-(4-methyl-piperazin-1-yl)-acetyl]-piperidin-4-yl}-phenylamino)-5-oxo-5,8-dihydro-pyrido[2,3-d]pyrimidine-6-carboxylic acid amide]", "IC50": 4100}, {"smiles": "CN1CCN(CC(=O)N2CCC(c3cccc(Nc4ncc5c(=O)c(C(N)=O)cn(-c6ccc7c(c6)CCC7)c5n4)c3)CC2)CC1", "note": "[Cpd 73, 8-Indan-5-yl-2-(3-{1-[2-(4-methyl-piperazin-1-yl)-acetyl]-piperidin-4-yl}-phenylamino)-5-oxo-5,8-dihydro-pyrido[2,3-d]pyrimidine-6-carboxylic acid amide]", "IC50": "> 1000"}, {"smiles": "CN(C)Cc1cccc(Nc2ncc3c(=O)c(C(N)=O)cn(-c4ccc5c(c4)CCC5)c3n2)c1", "note": "[Cpd 76, 2-(3-Dimethylaminomethyl-phenylamino)-8-indan-5-yl-5-oxo-5,8-dihydro-pyrido[2,3-d]pyrimidine-6-carboxylic acid amide]", "IC50": 18}, {"smiles": "CNC(=O)c1cn(-c2ccc3c(c2)CCC3)c2nc(Nc3cccc(CN(C)C)c3)ncc2c1=O", "note": "[Cpd 77, 2-(3-Dimethylaminomethyl-phenylamino)-8-indan-5-yl-5-oxo-5,8-dihydro-pyrido[2,3-d]pyrimidine-6-carboxylic acid methylamide]", "IC50": 150}, {"smiles": "CCNC(=O)c1cn(-c2ccc3c(c2)CCC3)c2nc(Nc3cccc(CN(C)C)c3)ncc2c1=O", "note": "[Cpd 78, 2-(3-Dimethylaminomethyl-phenylamino)-8-indan-5-yl-5-oxo-5,8-dihydro-pyrido[2,3-d]pyrimidine-6-carboxylic acid ethylamide]", "IC50": 140}, {"smiles": "CN(C)C(=O)c1cccc(Nc2ncc3c(=O)c(C(N)=O)cn(-c4ccc5c(c4)CCC5)c3n2)c1", "note": "[Cpd 79, 2-(3-Dimethylcarbamoyl-phenylamino)-8-indan-5-yl-5-oxo-5,8-dihydro-pyrido[2,3-d]pyrimidine-6-carboxylic acid amide]", "IC50": 62}, {"smiles": "CNC(=O)c1cn(-c2ccc3c(c2)CCC3)c2nc(Nc3cccc(C(=O)N(C)C)c3)ncc2c1=O", "note": "[Cpd 80, 2-(3-Dimethylcarbamoyl-phenylamino)-8-indan-5-yl-5-oxo-5,8-dihydro-pyrido[2,3-d]pyrimidine-6-carboxylic acid methylamide]", "IC50": 74}, {"smiles": "CCNC(=O)c1cn(-c2ccc3c(c2)CCC3)c2nc(Nc3cccc(C(=O)N(C)C)c3)ncc2c1=O", "note": "[Cpd 81, 2-(3-Dimethylcarbamoyl-phenylamino)-8-indan-5-yl-5-oxo-5,8-dihydro-pyrido[2,3-d]pyrimidine-6-carboxylic acid ethylamide]", "IC50": 110}]}]}
